Positions of bridges follow the written chain, without caps; N, C: chain ends. Residues, ends and D or L forms follow the SMILES beside them. No end group written: not given here.
Assays:
[1] = tested on: S. aureus 25923; test: MIC, modified microtiter dilution; assay type: cell-based, Staphylococcus aureus; settings: MHB, 2–7 × 10^5 CFU/ml, 37°C, 24 h, no turbidity, at least three independent repeats
From the text: (§1) The experiment was repeated at least three times independently.

[2] = tested on: S. aureus 29213; test: MIC, modified microtiter dilution; assay type: cell-based, Staphylococcus aureus; settings: MHB, 2–7 × 10^5 CFU/ml, 37°C, 24 h, no turbidity, at least three independent repeats
From the text: as §1

[3] = tested on: E. coli K99; settings: MHB, 2–7 × 10^5 CFU/ml, 37°C, 24 h, no turbidity, at least three independent repeats
From the text: (§2) The bacterial strains Escherichia coli (E. coli) ATCC 25922, E. coli K88, E. coli K99, Pseudomonas aeruginosa (P. aeruginosa) ATCC 27853, Escherichia coli (E. coli) UB1005, Salmonella typhimurium 14028, Salmonella pullorum (S. pullorum) C7913, S. typhimurium C7731, S. aureus ATCC 29213, MRSA ATCC 43300, and S. aureus ATCC 25923 were obtained from the College of Veterinary Medicine, Northeast Agricultural University, China. Lactobacillus plantarum (L. plantarum) 8014, Lactobacillus rhamnosus (L. rhamnosus) 7469, L. rhamnosus 1.0911, L. rhamnosus 1.0936, and L. rhamnosus 1.0385 were obtained from the Key Laboratory of Food College, Northeast Agricultural University, China.
(§3) As in a previous study, the antimicrobial activities of the AMPs were investigated using a modified standard microtiter dilution method ([Dong et al., 2014]). The peptides were serially diluted with a solution containing 0.01% acetic acid and 0.2% bovine serum albumin (BSA, Sigma) in 96-well plates. The bacteria grew to the mid-log phase and then were dissolved in MHB at concentration of 2–7 × 10^5 CFU/ml. The peptides and bacterial solution were mixed in equal volume in a 37°C incubator for 24 h. […] Mueller-Hinton broth with microorganisms was used as the positive control, and the pure broth was used as the negative control. The experiment was repeated at least three times independently.

[4] = tested on: E. coli K88; settings: MHB, 2–7 × 10^5 CFU/ml, 37°C, 24 h, no turbidity, at least three independent repeats
From the text: as §2, §3

[5] = tested on: S. pullorum 7913; test: MIC, modified microtiter dilution; assay type: cell-based, Salmonella pullorum; settings: MHB, 2–7 × 10^5 CFU/ml, 37°C, 24 h, no turbidity, at least three independent repeats
From the text: as §1

[6] = tested on: RAW 264.7 cells; test: Cytotoxicity, MTT dye reduction assay; assay type: cell-based, murine; settings: highest concentration of 128 μM, 4 h, three independent repeats
Method: The cytotoxicity of peptides was determined by healthy human erythrocytes and the murine macrophage cell line RAW 264.7 via a hemolysis assay and MTT dye reduction assay, respectively ([Wang et al., 2018]). In the hemolysis assay, fresh hRBCs from healthy people were centrifuged for 5 min at 1,000 × g and then washed three times with PBS (pH = 7.2). The 100 μL erythrocyte suspension and peptides were incubated for 1.5 h in an incubator at 37°C. The 96-well plates were centrifuged at 1,000 × g for 5 min, and the supernatants were carefully aspirated. The absorbance at 570 nm indicated the leakage of hemoglobin. The hRBCs in the PBS sample was used as the negative control, and 0.1% Triton X-100 addition served as the positive control. In the MTT dye reduction assay, 1.0–2.0 × 10^5 cells were plated in 96-well plates and then treated with various concentrations of peptides for 4 h at 37°C in a 5% CO2 incubator. Subsequently, 50 μL of MTT was added to the plated cells at a final concentration of 0.5 mg/mL and incubated for 4 h. Then, the cells were centrifuged at 1000 × g for 5 min, and the supernatants were discarded. Formazan crystals were dissolved in 150 μL of DMSO, and the OD570 nm was measured using a microplate reader (TECAN GENios F129004; TECAN, Austria). The experiment was repeated three times independently.

[7] = tested on: S. typhimurium 14028; test: MIC, modified microtiter dilution; assay type: cell-based, Salmonella typhimurium; settings: MHB, 2–7 × 10^5 CFU/ml, 37°C, 24 h, no turbidity, at least three independent repeats
From the text: as §1

[8] = tested on: S. typhimurium 7731; test: MIC, modified microtiter dilution; assay type: cell-based, Salmonella typhimurium; settings: MHB, 2–7 × 10^5 CFU/ml, 37°C, 24 h, no turbidity, at least three independent repeats
From the text: as §1

[9] = tested on: MRSA 43300; assay type: cell-based, Staphylococcus aureus; settings: MHB, 2–7 × 10^5 CFU/ml, 37°C, 24 h, no turbidity, at least three independent repeats
From the text: as §1

[10] = tested on: L. plantarum 8014; test: MIC, modified microtiter dilution; assay type: cell-based, Lactobacillus plantarum; settings: 2–7 × 10^5 CFU/ml, 37°C, 24 h, no turbidity, at least three independent repeats
From the text: as §1

[11] = tested on: L. rhamnosus 1.0385; test: MIC, modified microtiter dilution; assay type: cell-based, Lactobacillus rhamnosus; settings: 2–7 × 10^5 CFU/ml, 37°C, 24 h, no turbidity, at least three independent repeats
From the text: as §1

[12] = tested on: L. rhamnosus 1.0911; test: MIC, modified microtiter dilution; assay type: cell-based, Lactobacillus rhamnosus; settings: 2–7 × 10^5 CFU/ml, 37°C, 24 h, no turbidity, at least three independent repeats
From the text: as §1

[13] = tested on: L. rhamnosus 1.0936; test: MIC, modified microtiter dilution; assay type: cell-based, Lactobacillus rhamnosus; settings: 2–7 × 10^5 CFU/ml, 37°C, 24 h, no turbidity, at least three independent repeats
From the text: as §1

[14] = tested on: L. rhamnosus 7469; test: MIC, modified microtiter dilution; assay type: cell-based, Lactobacillus rhamnosus; settings: 2–7 × 10^5 CFU/ml, 37°C, 24 h, no turbidity, at least three independent repeats
From the text: as §1

[15] = tested on: P. aeruginosa 27853; test: MIC, modified microtiter dilution; assay type: cell-based, Pseudomonas aeruginosa; settings: MHB, 2–7 × 10^5 CFU/ml, 37°C, 24 h, no turbidity, at least three independent repeats
From the text: as §1

[16] = tested on: S. aureus 29213; test: MIC in the presence of physiological salts; assay type: cell-based, Staphylococcus aureus; settings: three independent repeats; for MIC against S. aureus 29213, FeCl3: 4 μM FeCl3; for MIC against S. aureus 29213, FeCl3 / MIC against S. aureus 29213, NH4Cl / MIC against S. aureus 29213, ZnCl2 / MIC against S. aureus 29213, MgCl2 / MIC against S. aureus 29213, CaCl2 / MIC against S. aureus 29213, KCl / MIC against S. aureus 29213, NaCl: unit not given in Table 4; for MIC against S. aureus 29213, NH4Cl: 6 μM NH4Cl; for MIC against S. aureus 29213, ZnCl2: 8 μM ZnCl2; for MIC against S. aureus 29213, MgCl2: 1 mM MgCl2; for MIC against S. aureus 29213, CaCl2: 2 mM CaCl2; for MIC against S. aureus 29213, KCl: 4.5 mM KCl; for MIC against S. aureus 29213, NaCl: 150 mM NaCl
Method: as §1
The MIC of peptides was determined in the presence of salts at physiological concentrations (150 mM NaCl, 4.5 mM KCl, 6 μM NH4Cl, 8 μM ZnCl2, 1 mM MgCl2, 2 mM CaCl2, and 4 μM FeCl3) as described previously ([Dong et al., 2014]). All experiments were performed three times independently.

[17] = tested on: E. coli UB1005; test: MIC, modified microtiter dilution; assay type: cell-based, Escherichia coli; settings: MHB, 2–7 × 10^5 CFU/ml, 37°C, 24 h, no turbidity, at least three independent repeats
From the text: as §1

[18] = tested on: E. coli 25922; test: MIC, modified microtiter dilution; assay type: cell-based, Escherichia coli; settings: MHB, 2–7 × 10^5 CFU/ml, 37°C, 24 h, lowest concentration with no turbidity, at least three independent repeats
From the text: as §1

[19] = tested on: panel of bacterial species; test: MIC against a panel of bacterial species (summary statements); assay type: cell-based; settings: all tested bacteria, up to the highest concentration measured
From the text: as §1

| Compound | MIC S. aureus 25923 [1] [µM] | MIC S. aureus 29213 [2] [µM] | MIC E. coli K99 [3] [µM] | MIC E. coli K88 [4] [µM] | MIC S. pullorum 7913 [5] [µM] | RAW 264.7 cell survival rate [6] [%] | MIC S. typhimurium 14028 [7] [µM] | MIC S. typhimurium 7731 [8] [µM] | MIC MRSA 43300 [9] [µM] | MIC L. plantarum 8014 [10] [µM] | MIC L. rhamnosus 1.0385 [11] [µM] | MIC L. rhamnosus 1.0911 [12] [µM] | MIC L. rhamnosus 1.0936 [13] [µM] | MIC L. rhamnosus 7469 [14] [µM] | MIC P. aeruginosa 27853 [15] [µM] | MIC against S. aureus 29213, FeCl3 [16] [µM] | MIC against S. aureus 29213, NH4Cl [16] [µM] | MIC against S. aureus 29213, ZnCl2 [16] [µM] | MIC against S. aureus 29213, MgCl2 [16] [µM] | MIC against S. aureus 29213, CaCl2 [16] [µM] | also measured |
| --- | --- | --- | --- | --- | --- | --- | --- | --- | --- | --- | --- | --- | --- | --- | --- | --- | --- | --- | --- | --- | --- |
| RWWWRR-NH2 [Peptide S6] | 16 | 16 | 32 | 32 | >64 | 94 | >64 | >64 | 8 | >64 | >64 | >64 | >64 | >64 | >64 | 32 | 16 | 4 | 32 | 32 | MIC against S. aureus 29213, KCl [16]: 16 µM; MIC against S. aureus 29213, NaCl [16]: 8 µM; MIC E. coli UB1005 [17]: 32 µM; MIC E. coli 25922 [18]: 32 µM |
| RWWWAA-NH2 [Peptide S8] | >64 | >64 | >64 | >64 | >64 | 85 | >64 | >64 | >64 | >64 | >64 | >64 | >64 | >64 | >64 | >64 | >64 | 64 | >64 | >64 | MIC against S. aureus 29213, KCl [16]: >64 µM; MIC against S. aureus 29213, NaCl [16]: >64 µM; MIC E. coli UB1005 [17]: >64 µM; MIC E. coli 25922 [18]: >64 µM |
| C[C@H](NC(=O)[C@H](C)NC(=O)[C@H](Cc1c[nH]c2ccccc12)NC(=O)[C@H](Cc1c[nH]c2ccccc12)NC(=O)[C@H](Cc1c[nH]c2ccccc12)NC(=O)[C@H](CCCNC(=N)N)NC(=O)[C@@H]1CSSC[C@H](N)C(=O)N[C@@H](C)C(=O)N[C@@H](CO)C(=O)N[C@@H](Cc2ccc(O)cc2)C(=O)N[C@@H](Cc2ccccc2)C(=O)N1)C(N)=O [Peptide S3] (H-CASYFCRWWWAA-NH2; disulfide 1-6; N-terminus assumed) | >64 | >64 | >64 | >64 | >64 | 84 | >64 | >64 | >64 | >64 | >64 | >64 | >64 | >64 | >64 | >64 | >64 | >64 | >64 | >64 | antimicrobial activity against the tested microorganisms [19]: failed to show antimicrobial activity; MIC against S. aureus 29213, KCl [16]: >64 µM; MIC against S. aureus 29213, NaCl [16]: >64 µM; MIC E. coli UB1005 [17]: >64 µM; MIC E. coli 25922 [18]: >64 µM |
| CC(C)C[C@H](NC(=O)[C@H](CC(C)C)NC(=O)[C@H](Cc1c[nH]c2ccccc12)NC(=O)[C@H](Cc1c[nH]c2ccccc12)NC(=O)[C@H](Cc1c[nH]c2ccccc12)NC(=O)[C@H](CCCNC(=N)N)NC(=O)[C@H](CS)NC(=O)[C@H](Cc1ccccc1)NC(=O)[C@H](Cc1ccc(O)cc1)NC(=O)[C@H](CO)NC(=O)[C@H](C)NC(=O)[C@@H](N)CS)C(N)=O [Peptide S4] (H-CASYFCRWWWLL-NH2; N-terminus assumed) | >64 | >64 | >64 | >64 | >64 | 90 | >64 | >64 | >64 | >64 | >64 | >64 | >64 | >64 | >64 | >64 | >64 | >64 | >64 | >64 | antimicrobial activity against the tested microorganisms [19]: failed to show antimicrobial activity; MIC against S. aureus 29213, KCl [16]: >64 µM; MIC against S. aureus 29213, NaCl [16]: >64 µM; MIC E. coli UB1005 [17]: >64 µM; MIC E. coli 25922 [18]: >64 µM |
| C[C@@H]1NC(=O)[C@@H](N)CSSC[C@@H](C(N)=O)NC(=O)[C@H](Cc2ccccc2)NC(=O)[C@H](Cc2ccc(O)cc2)NC(=O)[C@H](CO)NC1=O [Peptide S5] (H-CASYFC-NH2; disulfide 1-6; N-terminus and C-terminus assumed) | – | – | – | – | – | – | – | – | – | – | – | – | – | – | – | – | – | – | – | – | antimicrobial activity against the tested microorganisms [19]: failed to show antimicrobial activity; MIC against S. aureus 29213 (column MIC, no added salt) ([16]; control without added salt, unit not printed in Table 4, μM as in Table 3): >64 µM |

— PMC7516806, “Hybrid Antimicrobial Peptide Targeting Staphylococcus aureus and Displaying Anti-infective Activity in a Murine Model” (Frontiers in Microbiology, 2020)
